Assay results from US7598269B2, “Methods and compositions for treating amyloid-related diseases” (Bellus Health (International) Limited, priority 2003, dated 2009).

Assays:
Aβ40 = target: T1, Aβ40 (Homo sapiens, UniProt P05067); experiment: Short term treatment of TgCRND8 mice: Aβ40 levels in plasma and brain (ELISA); assay type: in vivo, Mouse; conditions: for Aβ40 Change: plasma, TgCRND8 mice
T1 construct: from tissue; host or cells: plasma and brain homogenate of TgCRND8 transgenic mice (hAPP transgene)
T1 sequence (P05067 672-711 limits assumed): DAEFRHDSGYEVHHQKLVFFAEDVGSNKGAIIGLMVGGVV
Text: (§1) Transgenic mice, […]8, expressing the human amyloid precursor protein (hAPP) develop a pathology resembling Alzheimer's disease. In particular, high levels of Aβ40 and Aβ42 have been documented in the plasma and the brain of these animals at 8-9 weeks of age, followed by early accumulation of amyloid plaques similar to the senile plaques observed in […]. These animals also display progressive cognitive deficits that parallel the appearance of degenerative changes. See, […], et al., J. Biol. Chem. 276, 21562-70 (2001). The short term therapeutic effect of 19 compounds of the invention was studied. […] The following abbreviations are used to designate these animals from the 3rd and 4th generation backcross in the present protocol: TgCRND8-2.B6C3F1 (N3); TgCRND8-2.B6C3F1 (N4). Baseline animals (Group 1) consisted of naive TgCRND8-2.B6C3F1(N3) at 11±1 weeks of age. These mice were used to determine the Aβ levels in the plasma and brain of naive transgenic animals at the initiation of treatment. […] At the end of the treatment periods, plasma and perfused brains were collected for quantification of Aβ levels. […] Plasma samples were immediately frozen and stored at -80° C. pending analysis. The brains were removed, frozen, and stored at -80° C. awaiting analysis. […] Samples were spun at 15000 g for 20 minutes and the supernatants were transferred to fresh tubes. […] The tubes were vortexed for 30 seconds and frozen at -80° C. […] Samples were thawed at room temperature, sonicated at 80° C. for 15 minutes and frozen again. This cycle was repeated 3 times to ensure homogeneity and samples were returned to -80° C. pending analysis. Aβ levels were evaluated in plasma and brain samples by ELISA using Human Aβ40 and Aβ42 Fluorometric ELISA kits from Biosource (Cat. […] In short, samples were thawed at room temperature, sonicated for 5 minutes at 80° C. (sonication for brain homogenates; no sonication for plasma samples) and kept on ice. Aβ peptides were captured using 100 μl of the diluted samples to the plate and incubated without shaking at 4° C. overnight. The samples were aspirated and the wells were rinsed 4 times with wash buffer obtained from the Biosource ELISA kit. The anti-Aβ40 or anti-Aβ42 rabbit polyclonal antiserum (specific for the Aβ40 or Aβ42 peptide) was added (100 μl) and the plate was incubated at room temperature for 2 hours with shaking. The wells were aspirated and washed 4 times before adding 100 μl of the alkaline phosphatase labeled anti-rabbit antibody and incubating at room temperature for 2 hours with shaking. The plates were then rinsed 5 times and the fluorescent substrate (100 μl) was added to the plate. The plate was incubated for 35 minutes at room temperature and the plate was read using a titer plate reader at an excitation wavelength of 460 nm and emission at 560 nm. Compounds were scored based on their ability to modulate levels of Aβ peptides in the plasma and the cerebral soluble/insoluble levels in the brain. Levels of Aβ observed in the plasma and brain of treated animals were normalized using values from vehicle-treated (water) or methylcellulose-treated control groups and ranked according to the strength of the pharmacological effect. Increases in the levels of Aβ peptides are indicated using “+” symbols, while decreases in the levels of Aβ peptides are indicated using “-” symbols. The strongest effects are recorded as “+++” or “---” while the weakest are shown as “+” or “-”.

Aβ42 = target: T2, Aβ42 (Homo sapiens, UniProt P05067); experiment: Short term treatment of TgCRND8 mice: Aβ42 levels in plasma and brain (ELISA); assay type: in vivo, Mouse; conditions: for Aβ42 Change: plasma, TgCRND8 mice
T2 construct: from tissue; host or cells: plasma and brain homogenate of TgCRND8 transgenic mice (hAPP transgene)
T2 sequence (P05067 672-713 limits assumed): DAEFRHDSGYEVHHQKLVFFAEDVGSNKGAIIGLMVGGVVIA
Text: as §1

[1] = brain homogenate, vehicle group, Day 14, 250 mg/kg daily subcutaneous
[2] = brain homogenate, vehicle group, Day 28, 250 mg/kg daily subcutaneous
[3] = vehicle (water) group, Day 28, 250 mg/kg daily subcutaneous
[4] = brain homogenate, methylcellulose group, Day 14, 250 mg/kg daily oral
[5] = brain homogenate, methylcellulose group, Day 28, 250 mg/kg daily oral
[6] = methylcellulose group, Day 14, 250 mg/kg daily oral
[7] = methylcellulose group, Day 28, 250 mg/kg daily oral
[8] = vehicle (water) group, Day 14, 250 mg/kg daily subcutaneous

## CC[C@@H](CO)NCCCS(=O)(=O)O [CU, (S)-3-(1-hydroxy-2-butylamino)-1-propanesulfonic acid]
Aβ40; [1]
  Aβ40 Change Soluble: + (increases in the levels of Aβ (relative to untreated control) of 20 to 39% are scored as “+”)
Aβ40; [2]
  Aβ40 Change Insoluble: +++ (increases of 70% or higher are scored as “+++”)
Aβ40; [3]
  Aβ40 Change: + (increases in the levels of Aβ (relative to untreated control) of 20 to 39% are scored as “+”)
Aβ42; [1]
  Aβ42 Change Insoluble: − (Decreases in the levels of Aβ of 5 to 19% are scored as “−”)
  Aβ42 Change Soluble: ++ (increases of 40 to 69% are scored as “++”)
Aβ42; [2]
  Aβ42 Change Insoluble: +++ (increases of 70% or higher are scored as “+++”)
  Aβ42 Change Soluble: ++ (increases of 40 to 69% are scored as “++”)
Aβ42; [3]
  Aβ42 Change: + (increases in the levels of Aβ (relative to untreated control) of 20 to 39% are scored as “+”)

## CCCCCCCCCNCCCS(=O)(=O)O [DA, 3-nonylamino-1-propanesulfonic acid]
Aβ40; [4]
  Aβ40 Change Insoluble: −−− (decreases of 39% or more are scored as “−−−”)
  Aβ40 Change Soluble: − (Decreases in the levels of Aβ of 5 to 19% are scored as “−”)
Aβ40; [5]
  Aβ40 Change Insoluble: −− (decreases of 20 to 38% are scored as “−−”)
  Aβ40 Change Soluble: −− (decreases of 20 to 38% are scored as “−−”)
Aβ42; [4]
  Aβ42 Change Insoluble: −− (decreases of 20 to 38% are scored as “−−”)
  Aβ42 Change Soluble: −− (decreases of 20 to 38% are scored as “−−”)
Aβ42; [5]
  Aβ42 Change Insoluble: −− (decreases of 20 to 38% are scored as “−−”)
Aβ42; [6]
  Aβ42 Change: + (increases in the levels of Aβ (relative to untreated control) of 20 to 39% are scored as “+”)
Aβ42; [7]
  Aβ42 Change: + (increases in the levels of Aβ (relative to untreated control) of 20 to 39% are scored as “+”)

## CCCC(CO)NCCCS(=O)(=O)O (racemic) [Compound CA, 3-[(dl)-1-hydroxy-2-pentyl]amino-1-propane-sulfonic acid]
Aβ40; [1]
  Aβ40 Change Insoluble: − (Decreases in the levels of Aβ of 5 to 19% are scored as “−”)
  Aβ40 Change Soluble: + (increases in the levels of Aβ (relative to untreated control) of 20 to 39% are scored as “+”)
Aβ40; [2]
  Aβ40 Change Insoluble: ++ (increases of 40 to 69% are scored as “++”)
  Aβ40 Change Soluble: + (increases in the levels of Aβ (relative to untreated control) of 20 to 39% are scored as “+”)
Aβ40; [8]
  Aβ40 Change: +++ (increases of 70% or higher are scored as “+++”)
Aβ40; [3]
  Aβ40 Change: +++ (increases of 70% or higher are scored as “+++”)
Aβ42; [1]
  Aβ42 Change Insoluble: −− (decreases of 20 to 38% are scored as “−−”)
Aβ42; [2]
  Aβ42 Change Insoluble: + (increases in the levels of Aβ (relative to untreated control) of 20 to 39% are scored as “+”)
  Aβ42 Change Soluble: + (increases in the levels of Aβ (relative to untreated control) of 20 to 39% are scored as “+”)
Aβ42; [8]
  Aβ42 Change: +++ (increases of 70% or higher are scored as “+++”)
Aβ42; [3]
  Aβ42 Change: +++ (increases of 70% or higher are scored as “+++”)

## NCCSS(=O)(=O)O [BE]
Aβ40; [1]
  Aβ40 Change Soluble: + (increases in the levels of Aβ (relative to untreated control) of 20 to 39% are scored as “+”)
Aβ40; [2]
  Aβ40 Change Insoluble: − (Decreases in the levels of Aβ of 5 to 19% are scored as “−”)
  Aβ40 Change Soluble: + (increases in the levels of Aβ (relative to untreated control) of 20 to 39% are scored as “+”)
Aβ40; [8]
  Aβ40 Change: ++ (increases of 40 to 69% are scored as “++”)
Aβ40; [3]
  Aβ40 Change: +++ (increases of 70% or higher are scored as “+++”)
Aβ42; [1]
  Aβ42 Change Insoluble: +++ (increases of 70% or higher are scored as “+++”)
  Aβ42 Change Soluble: +++ (increases of 70% or higher are scored as “+++”)
Aβ42; [2]
  Aβ42 Change Insoluble: +++ (increases of 70% or higher are scored as “+++”)
  Aβ42 Change Soluble: +++ (increases of 70% or higher are scored as “+++”)
Aβ42; [8]
  Aβ42 Change: +++ (increases of 70% or higher are scored as “+++”)
Aβ42; [3]
  Aβ42 Change: +++ (increases of 70% or higher are scored as “+++”)

## CCCCCCCCNCCCS(=O)(=O)O [CZ, 3-octylamino-1-propanesulfonic acid]
Aβ40; [4]
  Aβ40 Change Insoluble: −− (decreases of 20 to 38% are scored as “−−”)
  Aβ40 Change Soluble: − (Decreases in the levels of Aβ of 5 to 19% are scored as “−”)
Aβ40; [5]
  Aβ40 Change Soluble: − (Decreases in the levels of Aβ of 5 to 19% are scored as “−”)
Aβ40; [6]
  Aβ40 Change: − (Decreases in the levels of Aβ of 5 to 19% are scored as “−”)
Aβ42; [4]
  Aβ42 Change Insoluble: −−− (decreases of 39% or more are scored as “−−−”)
  Aβ42 Change Soluble: −−− (decreases of 39% or more are scored as “−−−”)
Aβ42; [5]
  Aβ42 Change Insoluble: −− (decreases of 20 to 38% are scored as “−−”)
  Aβ42 Change Soluble: − (Decreases in the levels of Aβ of 5 to 19% are scored as “−”)
Aβ42; [6]
  Aβ42 Change: − (Decreases in the levels of Aβ of 5 to 19% are scored as “−”)
Aβ42; [7]
  Aβ42 Change: − (Decreases in the levels of Aβ of 5 to 19% are scored as “−”)

## CC(CO)NCCCS(=O)(=O)O (stereo not shown) [CW, 3-(1-hydroxy-2-propylamino)-1-propanesulfonic acid]
Aβ40; brain homogenate, vehicle group, Day 28, total Aβ40, soluble and insoluble not measured independently
  Aβ40 Change (total levels): + (increases in the levels of Aβ (relative to untreated control) of 20 to 39% are scored as “+”)
Aβ40; [8]
  Aβ40 Change: ++ (increases of 40 to 69% are scored as “++”)
Aβ40; [3]
  Aβ40 Change: ++ (increases of 40 to 69% are scored as “++”)
Aβ42; brain homogenate, vehicle group, Day 28, total Aβ42, soluble and insoluble not measured independently
  Aβ42 Change (total levels): ++ (increases of 40 to 69% are scored as “++”)
Aβ42; [8]
  Aβ42 Change: ++ (increases of 40 to 69% are scored as “++”)
Aβ42; [3]
  Aβ42 Change: + (increases in the levels of Aβ (relative to untreated control) of 20 to 39% are scored as “+”)

## O=S(=O)(O)CCCNC1CCCc2ccccc21 (stereo not shown) [Compound BU, 3-(1,2,3,4-tetrahydro-1-naphthylamino)-1-propanesulfonic acid]
Aβ40; [4]
  Aβ40 Change Soluble: − (Decreases in the levels of Aβ of 5 to 19% are scored as “−”)
Aβ40; [5]
  Aβ40 Change Insoluble: −− (decreases of 20 to 38% are scored as “−−”)
  Aβ40 Change Soluble: −− (decreases of 20 to 38% are scored as “−−”)
Aβ40; [6]
  Aβ40 Change: − (Decreases in the levels of Aβ of 5 to 19% are scored as “−”)
Aβ42; [4]
  Aβ42 Change Insoluble: −−− (decreases of 39% or more are scored as “−−−”)
Aβ42; [5]
  Aβ42 Change Insoluble: −− (decreases of 20 to 38% are scored as “−−”)

## CCCCCNCCCS(=O)(=O)O [CF, 3-pentylamino-1-propanesulfonic acid]
Aβ40; [1]
  Aβ40 Change Insoluble: − (Decreases in the levels of Aβ of 5 to 19% are scored as “−”)
  Aβ40 Change Soluble: ++ (increases of 40 to 69% are scored as “++”)
Aβ40; [2]
  Aβ40 Change Soluble: + (increases in the levels of Aβ (relative to untreated control) of 20 to 39% are scored as “+”)
Aβ42; [1]
  Aβ42 Change Insoluble: −− (decreases of 20 to 38% are scored as “−−”)
  Aβ42 Change Soluble: − (Decreases in the levels of Aβ of 5 to 19% are scored as “−”)
Aβ42; [2]
  Aβ42 Change Insoluble: + (increases in the levels of Aβ (relative to untreated control) of 20 to 39% are scored as “+”)
